Experimental data as given in US10076116B2, “N-cycloalkyl-N-(biheterocyclymethylene)-(thio)carboxamide derivatives” (BAYER CROPSCIENCE AKTIENGESELLSCHAFT, priority 2013, dated 2018).

tested on: Puccinia recondita; test: In vivo preventive test on Puccinia recondita (brown rust on wheat); conditions: dose 125 ppm; in very similar conditions; prior-art analogues
Protocol: Example C: In Vivo Preventive Test on Puccinia recondita (Brown Rust on Wheat) […]
The young plants of wheat are treated by spraying the active ingredient prepared as described above. […]
After 24 hours, the plants are contaminated by spraying the leaves with an aqueous suspension of Puccinia recondita spores. The contaminated wheat plants are incubated for 24 hours at 20° C. and at 100% relative humidity and then for 10 days at 20° C. and at 70-80% relative humidity.
The test is evaluated 11 days after the inoculation. 0% means an efficacy which corresponds to that of the control plants while an efficacy of 100% means that no disease is observed.

| SMILES | Efficacy (Table C2) |
| --- | --- |
| Cc1nn(C)c(F)c1C(=O)N(Cc1cn(-c2ccccc2)c2ccccc12)C1CC1 [13 from WO-2009/016222, N-cyclopropyl-5-fluoro-1,3-dimethyl-N-[(1-phenyl-1H-indol-3-yl)methyl]-1H-pyrazole-4-carboxamide] | 17% |
| Cn1cc(C(=O)N(Cc2cn(-c3ccccc3)c3ccccc23)C2CC2)c(C(F)F)n1 [18 from WO-2009/016222, N-cyclopropyl-3-(difluoromethyl)-1-methyl-N-[(1-phenyl-1H-indol-3-yl)methyl]-1H-pyrazole-4-carboxamide] | 0% |
| CCc1nn(C)c(F)c1C(=O)N(Cc1cn(-c2ccccc2)c2ccccc12)C1CC1 [29 from WO-2009/016222, N-cyclopropyl-3-ethyl-5-fluoro-1-methyl-N-[(1-phenyl-1H-indol-3-yl)methyl]-1H-pyrazole-4-carboxamide] | 22% |
| Cc1nn(C)c(F)c1C(=O)N(Cc1ccc(Oc2ccccc2)nc1)C1CC1 [35 from WO-2008/037789, N-cyclopropyl-5-fluoro-1,3-dimethyl-N-[(6-phenoxypyridin-3-yl)methyl]-1H-pyrazole-4-carboxamide] | 0% |
| Cn1cc(C(=O)N(Cc2ccc(Oc3ccccc3)nc2)C2CC2)c(C(F)F)n1 [36 from WO-2008/037789, N-cyclopropyl-3-(difluoromethyl)-1-methyl-N-[(6-phenoxypyridin-3-yl)methyl]-1H-pyrazole-4-carboxamide] | 0% |

same assay, conditions: dose 500 ppm; in very similar conditions; prior-art analogues

| SMILES | Efficacy (Table C3) | Efficacy (Table C2) |
| --- | --- | --- |
| Cc1nn(C)c(F)c1C(=O)N(Cc1nc(-c2ccc(Cl)cc2)cs1)C1CC1 [12 from WO2008/015189, N-{[4-(4-chlorophenyl)-1,3-thiazol-2-yl]methyl}-N-cyclopropyl-5-fluoro-1,3-dimethyl-1H-pyrazole-4-carboxamide] | 0% |  |
| Cc1nn(C)c(F)c1C(=O)N(Cc1cn(-c2ccccc2)c2ccccc12)C1CC1 [13 from WO-2009/016222, N-cyclopropyl-5-fluoro-1,3-dimethyl-N-[(1-phenyl-1H-indol-3-yl)methyl]-1H-pyrazole-4-carboxamide] |  | 78% |
| Cc1nc(-c2ccc(Cl)cc2)sc1CN(C(=O)c1c(C)nn(C)c1F)C1CC1 [17 from WO2008/015189, N-{[2-(4-chlorophenyl)-4-methyl-1,3-thiazol-5-yl]methyl}-N-cyclopropyl-5-fluoro-1,3-dimethyl-1H-pyrazole-4-carboxamide] | 10% |  |
| Cn1cc(C(=O)N(Cc2cn(-c3ccccc3)c3ccccc23)C2CC2)c(C(F)F)n1 [18 from WO-2009/016222, N-cyclopropyl-3-(difluoromethyl)-1-methyl-N-[(1-phenyl-1H-indol-3-yl)methyl]-1H-pyrazole-4-carboxamide] |  | 0% |
| Cn1cc(C(=O)N(Cc2nc(-c3ccc(Cl)cc3)cs2)C2CC2)c(C(F)(F)F)c1 [28 from WO2008/015189, N-{[4-(4-chlorophenyl)-1,3-thiazol-2-yl]methyl}-N-cyclopropyl-1-methyl-4-(trifluoromethyl)-1H-pyrrole-3-carboxamide] | 11% |  |
| CCc1nn(C)c(F)c1C(=O)N(Cc1cn(-c2ccccc2)c2ccccc12)C1CC1 [29 from WO-2009/016222, N-cyclopropyl-3-ethyl-5-fluoro-1-methyl-N-[(1-phenyl-1H-indol-3-yl)methyl]-1H-pyrazole-4-carboxamide] |  | 67% |
| Cc1nn(C)c(F)c1C(=O)N(Cc1ccc(Oc2ccccc2)nc1)C1CC1 [35 from WO-2008/037789, N-cyclopropyl-5-fluoro-1,3-dimethyl-N-[(6-phenoxypyridin-3-yl)methyl]-1H-pyrazole-4-carboxamide] |  | 0% |
| Cn1cc(C(=O)N(Cc2ccc(Oc3ccccc3)nc2)C2CC2)c(C(F)F)n1 [36 from WO-2008/037789, N-cyclopropyl-3-(difluoromethyl)-1-methyl-N-[(6-phenoxypyridin-3-yl)methyl]-1H-pyrazole-4-carboxamide] |  | 0% |
| Cc1nc(-c2ccc(Cl)cc2)sc1CN(C(=O)c1cn(C)nc1C(F)F)C1CC1 [45 from WO2008/015189, N-{[2-(4-chlorophenyl)-4-methyl-1,3-thiazol-5-yl]methyl}-N-cyclopropyl-3-(difluoromethyl)-1-methyl-1H-pyrazole-4-carboxamide] | 0% |  |

same assay, conditions: in very similar conditions; dose of 500 and 125 ppm; analogues of WO2009/016222 and WO2008/037789

| SMILES | protection |
| --- | --- |
| Cc1nn(C)c(F)c1C(=O)N(Cc1cn(-c2ccccc2)c2ccccc12)C1CC1 [13 from WO-2009/016222, N-cyclopropyl-5-fluoro-1,3-dimethyl-N-[(1-phenyl-1H-indol-3-yl)methyl]-1H-pyrazole-4-carboxamide] | good (at least 70%) to no protection |
| Cn1cc(C(=O)N(Cc2cn(-c3ccccc3)c3ccccc23)C2CC2)c(C(F)F)n1 [18 from WO-2009/016222, N-cyclopropyl-3-(difluoromethyl)-1-methyl-N-[(1-phenyl-1H-indol-3-yl)methyl]-1H-pyrazole-4-carboxamide] | good (at least 70%) to no protection |
| CCc1nn(C)c(F)c1C(=O)N(Cc1cn(-c2ccccc2)c2ccccc12)C1CC1 [29 from WO-2009/016222, N-cyclopropyl-3-ethyl-5-fluoro-1-methyl-N-[(1-phenyl-1H-indol-3-yl)methyl]-1H-pyrazole-4-carboxamide] | good (at least 70%) to no protection |
| Cc1nn(C)c(F)c1C(=O)N(Cc1ccc(Oc2ccccc2)nc1)C1CC1 [35 from WO-2008/037789, N-cyclopropyl-5-fluoro-1,3-dimethyl-N-[(6-phenoxypyridin-3-yl)methyl]-1H-pyrazole-4-carboxamide] | good (at least 70%) to no protection |
| Cn1cc(C(=O)N(Cc2ccc(Oc3ccccc3)nc2)C2CC2)c(C(F)F)n1 [36 from WO-2008/037789, N-cyclopropyl-3-(difluoromethyl)-1-methyl-N-[(6-phenoxypyridin-3-yl)methyl]-1H-pyrazole-4-carboxamide] | good (at least 70%) to no protection |

tested on: not listed separately; test: log P by HPLC on reversed-phase column (C 18), EEC Directive 79/831 Annex V.A8; type: physicochemical; conditions: HPLC C 18, 40° C., 0.1% aqueous formic acid and acetonitrile, gradient 10% to 90% acetonitrile
Protocol: In table 1, the log P values were determined in accordance with EEC Directive 79/831 Annex V.A8 by HPLC (High Performance Liquid Chromatography) on a reversed-phase column (C 18), using the method described below: Temperature: 40° C.; Mobile phases: 0.1% aqueous formic acid and acetonitrile; linear gradient from 10% acetonitrile to 90% acetonitrile. Calibration was carried out using unbranched alkan-2-ones (comprising 3 to 16 carbon atoms) with known log P values (determination of the log P values by the retention times using linear interpolation between two successive alkanones). lambda-max-values were determined using UV-spectra from 200 nm to 400 nm and the peak values of the chromatographic signals.

| SMILES | logP |
| --- | --- |
| Cc1noc(C)c1-c1c(CN(C(=O)c2c(C(F)F)nn(C)c2F)C2CC2)sc2ccccc12 [Example I.55] | 3.51 |
| Cn1cc(C(=O)N(Cc2cc(Br)cnc2Sc2nccs2)C2CC2)c(C(F)F)n1 [Example I.58] | 3.09 |
| Cn1nc(C(F)F)c(C(=O)N(Cc2nn(-c3ccccc3)cc2C2CCOCC2)C2CC2)c1F [I.04] | 3.15 |
| Cc1ccc(-c2ccsc2CN(C(=O)c2sc(C)nc2C(F)F)C2CC2)s1 [I.06] | 4.08 |
| Cc1ccc(-c2ccsc2CN(C(=O)c2nn(C)nc2C(F)F)C2CC2)s1 [I.07] | 4.11 |
| Cc1ccc(-c2ccsc2CN(C(=O)c2ccsc2Br)C2CC2)s1 [I.08] | 4.69 |
| Cc1ccc(-c2ccsc2CN(C(=O)c2cn(C)cc2C(F)(F)F)C2CC2)s1 [I.09] | 4.18 |
| Cc1cc(C(=O)N(Cc2sccc2-c2ccc(C)s2)C2CC2)c(C)o1 [I.10] | 4.54 |
| Cn1cncc1-c1c(CN(C(=O)c2c(C(F)F)nn(C)c2F)C2CC2)sc2ccccc12 [I.48] | 1.66 |
| CC(C)c1nc(-c2c(CN(C(=O)c3c(C(F)F)nn(C)c3F)C3CC3)sc3ccccc23)cs1 [I.49] | 4.61 |
| Cn1ccc(-c2c(CN(C(=O)c3c(C(F)F)nn(C)c3F)C3CC3)sc3ccccc23)c1 [I.51] | 3.89 |
| Cc1occc1-c1c(CN(C(=O)c2c(C(F)F)nn(C)c2F)C2CC2)sc2ccccc12 [I.52] | 4.20 |

Second part, the compound after the results:

| logP | SMILES |
| --- | --- |
| 3.09 | Cn1cc(C(=O)N(Cc2cc(Br)cnc2Oc2cnc3ccccc3c2)C2CC2)c(C(F)F)n1 [Example I.56] |
| 3.27 | Cn1cc(C(=O)N(Cc2cc(Br)cnc2Sc2cnc3ccccc3c2)C2CC2)c(C(F)F)n1 [Example I.57] |
| 3.26 | Cn1nc(C(F)F)c(C(=O)N(Cc2nn(-c3ccccc3)cc2C2=CCOCC2)C2CC2)c1F [I.02] |
| 4.64 | Cn1nc(C(F)F)c(C(=S)N(Cc2nn(-c3ccccc3)cc2-c2ccc3c(ccn3C)c2)C2CC2)c1F [I.05] |
| 4.54 | Cn1nc(C(F)F)c(C(=O)N(Cc2ncc(C(F)(F)F)cc2-c2ccc(Cl)s2)C2CC2)c1F [I.18] |
| 4.46 | Cn1nc(C(F)F)c(C(=O)N(Cc2ncc(C(F)(F)F)cc2-c2csc3ccccc23)C2CC2)c1F [I.20] |
| 4.12 | Cc1cscc1-c1cc(C(F)(F)F)cnc1CN(C(=O)c1c(C(F)F)nn(C)c1F)C1CC1 [I.22] |
| 3.48 | CC(=O)c1ccc(-c2cc(C(F)(F)F)cnc2CN(C(=O)c2c(C(F)F)nn(C)c2F)C2CC2)s1 [I.24] |
| 4.73 | Cn1nc(C(F)F)c(C(=O)N(Cc2ncc(C(F)(F)F)cc2-c2cc3ccccc3s2)C2CC2)c1F [I.25] |
| 3.48 | Cn1nc(C(F)F)c(C(=O)N(Cc2ncc(C(F)(F)F)cc2-c2ccoc2)C2CC2)c1F [I.26] |
| 3.25 | Cn1nc(C(F)F)c(C(=O)N(Cc2ncc(C(F)(F)F)cc2-c2cnc3ccccc3c2)C2CC2)c1F [I.27] |
| 2.76 | Cn1nc(C(F)F)c(C(=O)N(Cc2ncc(C(F)(F)F)cc2-c2cc3ccccc3nc2O)C2CC2)c1F [I.28] |
| 3.68 | Cn1nc(C(F)F)c(C(=O)N(Cc2ncc(C(F)(F)F)cc2-c2ccco2)C2CC2)c1F [I.30] |
| 4.27 | Cc1csc(-c2cc(C(F)(F)F)cnc2CN(C(=O)c2c(C(F)F)nn(C)c2F)C2CC2)c1 [I.32] |
| 3.69 | Cc1ccc(-c2cc(C(F)(F)F)cnc2CN(C(=O)c2c(C(F)F)nn(C)c2F)C2CC2)o1 [I.33] |
| 4.11 | Cc1ccsc1-c1cc(C(F)(F)F)cnc1CN(C(=O)c1c(C(F)F)nn(C)c1F)C1CC1 [I.34] |
| 3.90 | Cn1nc(C(F)F)c(C(=S)N(Cc2ncc(C(F)(F)F)cc2-c2cnc3ccccc3c2)C2CC2)c1F [I.35] |
| 4.03 | Cn1nc(C(F)F)c(C(=S)N(Cc2ncc(C(F)(F)F)cc2-c2ccoc2)C2CC2)c1F [I.36] |
| 3.69 | Cc1cscc1-c1cc(C(F)(F)F)cnc1CN(C(=O)c1cn(C)nc1C(F)F)C1CC1 [I.38] |
| 3.46 | Cn1cc(C(=O)N(Cc2ncc(C(F)(F)F)cc2-c2cccs2)C2CC2)c(C(F)F)n1 [I.39] |
| 3.29 | Cn1cc(C(=O)N(Cc2ncc(C(F)(F)F)cc2-c2ccco2)C2CC2)c(C(F)F)n1 [I.40] |
| 3.92 | Cn1cc(C(=O)N(Cc2ncc(C(F)(F)F)cc2-c2csc3ccccc23)C2CC2)c(C(F)F)n1 [I.42] |
| 3.73 | Cn1cc(C(=O)N(Cc2ncc(C(F)(F)F)cc2-c2coc3ccccc23)C2CC2)c(C(F)F)n1 [I.43] |
| 2.82 | Cn1cc(C(=O)N(Cc2ncc(C(F)(F)F)cc2-c2cnc3ccccc3c2)C2CC2)c(C(F)F)n1 [I.44] |
| 3.27 | Cn1cc(C(=O)N(Cc2ncc(C(F)(F)F)cc2-c2ccnc3cc(Cl)ccc23)C2CC2)c(C(F)F)n1 [I.45] |
| 3.15 | Cn1cc(C(=O)N(Cc2ncc(C(F)(F)F)cc2-c2ccoc2)C2CC2)c(C(F)F)n1 [I.46] |
| 2.76 | Cn1nc(C(F)F)c(C(=O)N(Cc2sc3ccccc3c2-c2cncnc2)C2CC2)c1F [I.54] |

same assay, conditions: reversed-phase HPLC column (C 18); HPLC C 18, 40° C., 0.1% aqueous formic acid and acetonitrile, gradient 10% to 90% acetonitrile

| chromatographic logP | SMILES |
| --- | --- |
| 3.67 | Cn1nc(C(F)F)c(C(=O)N(Cc2ncc(C(F)(F)F)cc2-c2ccsc2)C2CC2)c1F [I.17, N-cyclopropyl-3-(difluoromethyl)-5-fluoro-1-methyl-N-{[3-(3-thienyl)-5-(trifluoromethyl)pyridin-2-yl]methyl}-1H-pyrazole-4-carboxamide] |
| 1.39 | Cc1ccc(-c2ccsc2CNC2CC2)s1 [IIb.01, N-[(5-methyl-2,3′-bithiophen-2′-yl)methyl]cyclopropanamine] |
| 3.35 | Cn1nc(C(F)F)c(C(=O)N(Cc2ncc(C(F)(F)F)cc2Cl)C2CC2)c1F [N-{[3-chloro-5-(trifluoromethyl)pyridin-2-yl]methyl}-N-cyclopropyl-3-(difluoromethyl)-5-fluoro-1-methyl-1H-pyrazole-4-carboxamide] |
